Data from ChEMBL document CHEMBL3430320, “Prediction of Thorough QT study results using action potential simulations based on ion channel screens” (J Pharmacol Toxicol Methods, 2014).

What was measured:
[1] = biological target: T1, Voltage-gated potassium channel, IKs; KCNQ1(Kv7.1)/KCNE1(MinK) (Homo sapiens, UniProt P51787+P15382); assay: Inhibition of slow delayed inward rectifying potassium current (Iks) in Chinese Hamster Ovary (CHO) cells transfected with KCNQ1 / […] / KvLQT1 and KCNE1/minK measured using IonWorks automated patch clamp platform; assay type: functional, cell-based, Cricetulus griseus
T1 sequence (P51787 whole entry): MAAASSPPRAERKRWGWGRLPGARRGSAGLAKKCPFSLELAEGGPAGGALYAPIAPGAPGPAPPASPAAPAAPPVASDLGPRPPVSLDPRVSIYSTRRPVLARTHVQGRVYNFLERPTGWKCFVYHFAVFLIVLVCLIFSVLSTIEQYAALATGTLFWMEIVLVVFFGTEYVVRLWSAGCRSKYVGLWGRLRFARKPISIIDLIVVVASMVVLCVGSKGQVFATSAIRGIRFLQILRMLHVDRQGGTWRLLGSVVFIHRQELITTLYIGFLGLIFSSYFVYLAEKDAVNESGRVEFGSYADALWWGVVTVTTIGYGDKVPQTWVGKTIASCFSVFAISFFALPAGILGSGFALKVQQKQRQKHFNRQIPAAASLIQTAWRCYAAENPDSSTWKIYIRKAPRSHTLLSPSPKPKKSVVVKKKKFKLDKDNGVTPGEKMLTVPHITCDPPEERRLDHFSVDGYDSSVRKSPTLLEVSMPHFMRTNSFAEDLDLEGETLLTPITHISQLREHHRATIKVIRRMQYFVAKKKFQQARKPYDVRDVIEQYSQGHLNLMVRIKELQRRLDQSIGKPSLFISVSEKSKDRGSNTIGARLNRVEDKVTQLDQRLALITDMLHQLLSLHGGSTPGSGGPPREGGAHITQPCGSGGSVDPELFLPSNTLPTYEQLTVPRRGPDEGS

[2] = biological target: T2, Voltage-dependent L-type calcium channel subunit alpha-1C (Homo sapiens, UniProt Q13936); assay: Inhibition of long-lasting type calcium current (ICaL) in HEK293 cells (alpha1C/beta2a/alpha2delta1) cells measured using IonWorks Barracuda automated patch clamp platform; assay type: functional, cell-based
T2 sequence (Q13936 whole entry): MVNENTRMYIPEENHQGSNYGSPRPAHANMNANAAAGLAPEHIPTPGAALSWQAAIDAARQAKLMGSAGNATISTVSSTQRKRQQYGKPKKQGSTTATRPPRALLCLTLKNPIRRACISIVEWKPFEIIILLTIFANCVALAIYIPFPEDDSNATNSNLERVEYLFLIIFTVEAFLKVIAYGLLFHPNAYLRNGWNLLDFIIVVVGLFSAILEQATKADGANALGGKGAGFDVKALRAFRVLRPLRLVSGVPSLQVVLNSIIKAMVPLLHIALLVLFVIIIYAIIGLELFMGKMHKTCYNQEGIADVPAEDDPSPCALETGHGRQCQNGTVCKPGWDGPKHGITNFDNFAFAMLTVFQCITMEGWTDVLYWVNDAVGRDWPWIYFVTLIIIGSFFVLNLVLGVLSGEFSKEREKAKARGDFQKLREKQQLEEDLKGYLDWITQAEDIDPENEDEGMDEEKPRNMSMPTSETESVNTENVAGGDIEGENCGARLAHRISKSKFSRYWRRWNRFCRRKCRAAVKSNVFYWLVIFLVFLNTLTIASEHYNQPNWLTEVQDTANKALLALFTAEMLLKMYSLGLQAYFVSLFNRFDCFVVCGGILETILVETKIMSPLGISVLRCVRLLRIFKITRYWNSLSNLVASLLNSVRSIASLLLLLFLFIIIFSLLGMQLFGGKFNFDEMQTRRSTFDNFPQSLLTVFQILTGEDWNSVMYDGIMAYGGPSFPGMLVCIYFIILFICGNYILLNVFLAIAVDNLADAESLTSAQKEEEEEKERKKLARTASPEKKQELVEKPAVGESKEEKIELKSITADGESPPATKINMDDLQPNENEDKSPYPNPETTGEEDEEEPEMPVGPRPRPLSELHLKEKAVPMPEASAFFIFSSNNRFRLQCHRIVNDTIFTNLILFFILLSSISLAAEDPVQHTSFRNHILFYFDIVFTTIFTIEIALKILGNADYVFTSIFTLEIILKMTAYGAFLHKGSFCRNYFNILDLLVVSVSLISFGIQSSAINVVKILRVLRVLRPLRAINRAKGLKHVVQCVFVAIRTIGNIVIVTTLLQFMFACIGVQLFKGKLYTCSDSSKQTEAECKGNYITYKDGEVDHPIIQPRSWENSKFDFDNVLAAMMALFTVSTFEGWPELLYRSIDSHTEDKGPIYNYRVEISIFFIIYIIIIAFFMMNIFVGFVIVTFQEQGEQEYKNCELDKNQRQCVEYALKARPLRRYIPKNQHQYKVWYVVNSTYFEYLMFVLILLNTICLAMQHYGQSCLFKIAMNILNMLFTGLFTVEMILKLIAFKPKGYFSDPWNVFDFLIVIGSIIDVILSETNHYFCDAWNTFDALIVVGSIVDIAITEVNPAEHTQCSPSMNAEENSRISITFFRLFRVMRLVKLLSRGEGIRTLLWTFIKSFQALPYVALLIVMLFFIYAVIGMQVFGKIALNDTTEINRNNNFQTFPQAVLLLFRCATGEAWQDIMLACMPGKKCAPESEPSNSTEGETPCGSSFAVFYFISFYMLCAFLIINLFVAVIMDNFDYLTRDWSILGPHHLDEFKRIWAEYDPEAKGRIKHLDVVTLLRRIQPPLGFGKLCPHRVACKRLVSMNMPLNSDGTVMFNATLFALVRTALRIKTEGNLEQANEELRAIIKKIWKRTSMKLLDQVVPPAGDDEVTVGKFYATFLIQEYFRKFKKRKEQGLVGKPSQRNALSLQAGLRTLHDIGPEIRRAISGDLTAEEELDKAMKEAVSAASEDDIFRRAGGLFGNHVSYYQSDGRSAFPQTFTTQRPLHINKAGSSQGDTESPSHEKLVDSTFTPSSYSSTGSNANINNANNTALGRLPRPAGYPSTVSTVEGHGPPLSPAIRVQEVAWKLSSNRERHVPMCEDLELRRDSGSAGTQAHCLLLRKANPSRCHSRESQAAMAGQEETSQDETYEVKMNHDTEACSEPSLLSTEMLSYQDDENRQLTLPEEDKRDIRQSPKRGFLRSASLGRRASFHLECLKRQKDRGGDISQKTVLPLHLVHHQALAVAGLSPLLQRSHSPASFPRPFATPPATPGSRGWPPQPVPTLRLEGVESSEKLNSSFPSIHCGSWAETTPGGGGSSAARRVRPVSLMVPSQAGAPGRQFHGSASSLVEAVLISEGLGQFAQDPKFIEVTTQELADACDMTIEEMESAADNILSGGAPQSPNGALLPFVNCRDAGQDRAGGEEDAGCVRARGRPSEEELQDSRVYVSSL

[3] = biological target: T2, Voltage-dependent L-type calcium channel subunit alpha-1C; assay: Inhibition of long-lasting type calcium current (hICa) in Chinese Hamster Ovary (CHO) cells expressing hCav1.2 measured using IonWorks Quattro automated patch clamp platform; assay type: functional, cell-based, Cricetulus griseus
[4] = biological target: T3, A-type voltage-gated potassium channel KCND3 (Homo sapiens, UniProt Q9UK17); assay: Inhibition of transient outward potassium current (Ito) current in Chinese Hamster Ovary (CHO) K1 cells expressing human Kv4.3 measured using IonWorks Quattro automated patch clamp platform; assay type: functional, cell-based, Cricetulus griseus
T3 sequence (Q9UK17 whole entry): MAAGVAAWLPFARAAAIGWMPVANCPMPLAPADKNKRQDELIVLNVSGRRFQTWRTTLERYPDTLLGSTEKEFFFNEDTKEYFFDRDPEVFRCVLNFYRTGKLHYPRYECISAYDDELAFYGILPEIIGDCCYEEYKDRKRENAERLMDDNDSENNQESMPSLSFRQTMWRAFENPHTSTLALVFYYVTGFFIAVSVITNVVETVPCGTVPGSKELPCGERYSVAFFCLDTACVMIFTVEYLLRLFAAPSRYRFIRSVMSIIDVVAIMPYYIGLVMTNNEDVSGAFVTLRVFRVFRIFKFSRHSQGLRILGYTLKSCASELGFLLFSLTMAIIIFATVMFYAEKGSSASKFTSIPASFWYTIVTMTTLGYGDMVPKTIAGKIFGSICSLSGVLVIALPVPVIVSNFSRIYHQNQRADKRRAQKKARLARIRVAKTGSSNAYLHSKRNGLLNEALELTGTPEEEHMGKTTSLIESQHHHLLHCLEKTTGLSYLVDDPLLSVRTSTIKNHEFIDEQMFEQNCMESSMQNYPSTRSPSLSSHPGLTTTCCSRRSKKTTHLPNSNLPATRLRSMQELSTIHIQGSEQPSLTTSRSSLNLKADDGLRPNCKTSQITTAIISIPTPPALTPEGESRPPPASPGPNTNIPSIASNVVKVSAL

[5] = biological target: T4, Voltage-gated inwardly rectifying potassium channel KCNH2 (Homo sapiens, UniProt Q12809); assay: Inhibition of rapid delayed inward rectifying potassium current (IKr) in Chinese hamster ovary (CHO) cells stable expressing hERG measured using IonWorks Barracuda automated patch clamp platform; assay type: functional, cell-based, Cricetulus griseus
T4 sequence (Q12809 whole entry): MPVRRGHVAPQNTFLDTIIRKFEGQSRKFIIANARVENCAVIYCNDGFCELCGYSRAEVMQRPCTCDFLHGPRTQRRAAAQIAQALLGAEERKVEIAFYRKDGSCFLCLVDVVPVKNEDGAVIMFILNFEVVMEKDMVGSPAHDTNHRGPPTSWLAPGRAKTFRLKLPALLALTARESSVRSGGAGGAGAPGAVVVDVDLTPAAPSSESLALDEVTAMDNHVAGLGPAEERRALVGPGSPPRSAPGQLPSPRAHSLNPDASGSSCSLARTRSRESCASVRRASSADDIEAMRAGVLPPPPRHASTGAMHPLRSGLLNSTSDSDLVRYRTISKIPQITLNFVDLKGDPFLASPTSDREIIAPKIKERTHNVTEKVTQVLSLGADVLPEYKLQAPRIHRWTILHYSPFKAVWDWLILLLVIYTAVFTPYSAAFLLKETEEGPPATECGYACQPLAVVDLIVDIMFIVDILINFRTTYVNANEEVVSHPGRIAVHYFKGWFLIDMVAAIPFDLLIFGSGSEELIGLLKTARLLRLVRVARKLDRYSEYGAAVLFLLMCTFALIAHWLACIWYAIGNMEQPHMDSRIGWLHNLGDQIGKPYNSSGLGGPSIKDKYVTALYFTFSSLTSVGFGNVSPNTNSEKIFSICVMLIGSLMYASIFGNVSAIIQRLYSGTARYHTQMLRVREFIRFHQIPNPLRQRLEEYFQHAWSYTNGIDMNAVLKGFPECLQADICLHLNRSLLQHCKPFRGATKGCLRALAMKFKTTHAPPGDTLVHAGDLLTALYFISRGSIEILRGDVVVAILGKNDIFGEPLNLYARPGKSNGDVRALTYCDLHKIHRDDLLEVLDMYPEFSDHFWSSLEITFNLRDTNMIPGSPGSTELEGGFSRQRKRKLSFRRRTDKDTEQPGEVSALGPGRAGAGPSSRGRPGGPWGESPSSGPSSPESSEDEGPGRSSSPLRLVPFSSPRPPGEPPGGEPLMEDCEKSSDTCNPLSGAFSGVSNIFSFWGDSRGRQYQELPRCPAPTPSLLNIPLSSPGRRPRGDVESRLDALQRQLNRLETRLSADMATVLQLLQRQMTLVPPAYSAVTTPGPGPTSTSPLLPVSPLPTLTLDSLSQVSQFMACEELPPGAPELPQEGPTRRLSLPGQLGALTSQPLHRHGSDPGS

[6] = biological target: T4, Voltage-gated inwardly rectifying potassium channel KCNH2; assay: Inhibition of rapid delayed inward rectifying potassium current (IKr) in Chinese hamster ovary (CHO) K1 cells stably expressing hERG measured using IonWorks Quattro automated patch clamp platform; assay type: functional, cell-based, Cricetulus griseus
[7] = biological target: T1, Voltage-gated potassium channel, IKs; KCNQ1(Kv7.1)/KCNE1(MinK); assay: (§1) Inhibition of slow delayed inward rectifying potassium current (Iks) in Chinese Hamster Ovary (CHO) cells expressing hKvLQT1/hminK measured using IonWorks Quattro automated patch clamp platform; assay type: functional, cell-based, Cricetulus griseus
[8] = biological target: Sodium channel protein type 5 subunit alpha (Homo sapiens, UniProt Q14524); assay: Inhibition of fast sodium current (INa) in HEK293 cells transfected with human Nav1.5 measured using IonWorks Quattro automated patch clamp platform; assay type: functional, cell-based
[9] = biological target: T4, Voltage-gated inwardly rectifying potassium channel KCNH2; assay: Inhibition of rapid delayed inward rectifying potassium current (IKr) measured using manual patch clamp assay; assay type: functional
[10] = biological target: T4, Voltage-gated inwardly rectifying potassium channel KCNH2
[11] = biological target: Voltage-gated potassium channel, IKs; KCNQ1(Kv7.1)/KCNE1(MinK) (Homo sapiens, UniProt P15382+P51787); assay: as §1; assay type: functional, cell-based, Cricetulus griseus
Chain of Voltage-gated potassium channel, IKs; KCNQ1(Kv7.1)/KCNE1(MinK) (Homo sapiens, UniProt P15382+P51787) (P51787 whole entry): as the sequence (P51787 whole entry) above

| Compound | pIC50 [1] | pIC50 [2] | pIC50 [3] | also measured |
| --- | --- | --- | --- | --- |
| CCCc1nc(C)c2c(=O)[nH]c(-c3cc(S(=O)(=O)N4CCN(CC)CC4)ccc3OCC)nn12 | Inactive | – | – | – |
| Cc1c(O)cccc1C(=O)N[C@@H](CSc1ccccc1)[C@H](O)CN1C[C@H]2CCCC[C@H]2C[C@H]1C(=O)NC(C)(C)C | Inactive | Inactive | Inactive | – |
| COc1cc2nc(N(C)CCCNC(=O)C3CCCO3)nc(N)c2cc1OC (stereo unspecified) [ALFUZOSIN] | Inactive | Inactive | – | – |
| C[C@H]1CN(C[C@H](Cc2ccccc2)C(=O)NCC(=O)O)CC[C@@]1(C)c1cccc(O)c1 [ALVIMOPAN] | – | – | – | pIC50 [4]: Inactive |
| COC(c1ccccc1)(c1ccccc1)[C@H](Oc1nc(C)cc(C)n1)C(=O)O [AMBRISENTAN] | – | Inactive | – | pIC50 [5]: Inactive; pIC50 [6]: 2.1 |
| Cc1nc(Nc2ncc(C(=O)Nc3c(C)cccc3Cl)s2)cc(N2CCN(CCO)CC2)n1.O [DASATINIB] | Inactive | – | – | – |
| O=C(O)c1ccc(-n2nc(-c3ccccc3O)nc2-c2ccccc2O)cc1 [DEFERASIROX] | Inactive | Inactive | – | pIC50 [5]: Inactive; pIC50 [7]: Inactive; pIC50 [6]: Inactive |
| CN(C)CC(c1ccc(O)cc1)C1(O)CCCCC1 (stereo unspecified) [DESVENLAFAXINE] | Inactive | Inactive | Inactive | pIC50 [5]: Inactive; pIC50 [7]: Inactive; pIC50 [6]: 1.7 |
| C[C@@H](O)[C@H]1C(=O)N2C(C(=O)O)=C(S[C@@H]3CN[C@H](CNS(N)(=O)=O)C3)[C@H](C)[C@H]12 [DORIPENEM] | – | – | – | pIC50 [4]: Inactive |
| CC1=NN(c2ccc(C)c(C)c2)C(=O)/C1=N\Nc1cccc(-c2cccc(C(=O)O)c2)c1O [ELTROMBOPAG] | Inactive | Inactive | Inactive | pIC50 [7]: Inactive; pIC50 [6]: Inactive |
| Cc1cc(C#N)cc(C)c1Oc1nc(Nc2ccc(C#N)cc2)nc(N)c1Br [ETRAVIRINE] | Inactive | Inactive | Inactive | – |
| CO[C@H]1C[C@@H]2CC[C@@H](C)[C@@](O)(O2)C(=O)C(=O)N2CCCC[C@H]2C(=O)O[C@H]([C@H](C)C[C@@H]2CC[C@@H](OCCO)[C@H](OC)C2)CC(=O)[C@H](C)/C=C(\C)[C@@H](O)[C@@H](OC)C(=O)[C@H](C)C[C@H](C)/C=C/C=C/C=C/1C [EVEROLIMUS] | Inactive | Inactive | Inactive | – |
| Nc1nnc(-c2cccc(Cl)c2Cl)c(N)n1 [LAMOTRIGINE] | Inactive | – | – | pIC50 [4]: Inactive |
| CS(=O)(=O)CCNCc1ccc(-c2ccc3ncnc(Nc4ccc(OCc5cccc(F)c5)c(Cl)c4)c3c2)o1 [LAPATINIB] | Inactive | – | – | pIC50 [4]: Inactive; pIC50 [8]: Inactive |
| OC(CNCC(O)C1CCc2cc(F)ccc2O1)C1CCc2cc(F)ccc2O1 (stereo unspecified) [NEBIVOLOL] | – | – | Inactive | IC50 [9]: 0.316 µM |
| Cc1cn(-c2cc(NC(=O)c3ccc(C)c(Nc4nccc(-c5cccnc5)n4)c3)cc(C(F)(F)F)c2)cn1 [NILOTINIB] | Inactive | – | – | – |
| O=C1c2cccc3c2[C@H](CCC3)CN1[C@@H]1CN2CCC1CC2 [PALONOSETRON] | – | – | – | pIC50 [4]: Inactive; IC50 [9]: 2 µM |
| C[C@H](Cc1cc2c(c(C(N)=O)c1)N(CCCO)CC2)NCCOc1ccccc1OCC(F)(F)F [SILODOSIN] | – | – | – | IC50 [10]: 7.94 µM |
| N[C@@H](CC(=O)N1CCn2c(nnc2C(F)(F)F)C1)Cc1cc(F)c(F)cc1F [SITAGLIPTIN] | Inactive | Inactive | – | – |
| Cc1cn([C@@H]2C[C@@H](O)[C@H](CO)O2)c(=O)[nH]c1=O [TELBIVUDINE] | – | – | Inactive | pIC50 [4]: Inactive; pIC50 [6]: 2.3 |
| Cc1ccc(O)c([C@H](CCN(C(C)C)C(C)C)c2ccccc2)c1 [TOLTERODINE] | – | – | – | IC50 [11]: 79.4 µM |
